According to BigSolDB 2.1:

Nc1nc(=O)[nH]cc1F
solubility (mole fraction)
Conditions | in 1,4-dioxane | in 2-butanone | in DMF | in DMSO | in acetone | in acetonitrile | in ethyl acetate | in isopropanol | in n-butanol | in n-propanol
283.15 K | 1.13e-05 | 4.37e-05 | 0.00113 | 0.00559 | 6.9e-05 | 7e-06 | 3.5e-06 | 0.00016 | 0.000282 | 0.000222
288.15 K | 1.51e-05 | 5.91e-05 | 0.00127 | 0.00611 | 8.62e-05 | 9.6e-06 | 4.5e-06 | 0.000204 | 0.000332 | 0.000272
293.15 K | 1.92e-05 | 7.74e-05 | 0.00146 | 0.00675 | 0.000107 | 1.31e-05 | 6.2e-06 | 0.000253 | 0.000399 | 0.000334
298.15 K | 2.37e-05 | 9.76e-05 | 0.00169 | 0.00754 | 0.000131 | 1.77e-05 | 8.6e-06 | 0.000314 | 0.000477 | 0.000406
303.15 K | 2.82e-05 | 0.000121 | 0.00193 | 0.00838 | 0.000158 | 2.23e-05 | 1.14e-05 | 0.000382 | 0.000567 | 0.000489
308.15 K | 3.43e-05 | 0.000149 | 0.0022 | 0.00932 | 0.000192 | 2.84e-05 | 1.46e-05 | 0.000461 | 0.000674 | 0.000577
313.15 K | 4.17e-05 | 0.000184 | 0.00252 | 0.0103 | 0.000224 | 3.58e-05 | 1.93e-05 | 0.000548 | 0.000787 | 0.000677
318.15 K | 5.08e-05 | 0.000223 | 0.00287 | 0.0115 | 0.000273 | 4.5e-05 | 2.45e-05 | 0.000643 | 0.000916 | 0.000792
323.15 K | 6.07e-05 | 0.000271 | 0.00329 | 0.0129 | 0.000321 | 5.67e-05 | 3.11e-05 | 0.000757 | 0.00107 | 0.000923
